Experiments:
SARS-CoV-2 M^pro [1] = target: T1, SARS-CoV-2 M^pro (Severe acute respiratory syndrome coronavirus 2, UniProt P0DTD1); type: biochemical
hCatB = hCatB (Homo sapiens, UniProt P07858); assay: hCatB enzyme inhibition assay; type: biochemical; settings: hCatB vs hCatL
[2] = target: SARS-CoV-2 papain-like protease (PL^pro) (Severe acute respiratory syndrome coronavirus 2, UniProt P0DTD1); assay: SARS-CoV-2 PLpro enzyme inhibition screening; type: biochemical
[3] = target: T2, dengue virus NS2B/NS3 serine protease (Dengue virus type 2, UniProt P29990); assay: Dengue virus NS2B/NS3 protease inhibition screening; type: biochemical, dengue virus 2
T2 sequence (P29990 1476-1653 limits assumed): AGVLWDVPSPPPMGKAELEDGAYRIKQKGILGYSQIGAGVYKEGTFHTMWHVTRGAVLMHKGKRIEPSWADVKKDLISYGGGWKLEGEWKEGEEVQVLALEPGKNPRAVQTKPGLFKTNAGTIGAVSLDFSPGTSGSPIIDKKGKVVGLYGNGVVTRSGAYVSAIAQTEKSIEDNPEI

SARS-CoV-2 M^pro [4] = target: T1, SARS-CoV-2 M^pro; type: biochemical; settings: inhibitor at 10-fold IC50, 60 min incubation, 25 h of dialysis

Structure (SMILES) | binding affinity to SARS-CoV-2 M^pro, fold lower with respect to SPR38 (SARS-CoV-2 M^pro [1]) | Ki hCatB fold higher compared to Ki hCatL (hCatB) | inhibition of SARS-CoV-2 PL^pro at 100 μM [2] | inhibitory activity against dengue virus NS2B/NS3 serine protease at 100 μM [3] | enzymatic activity of M^pro recovered after dialysis (SARS-CoV-2 M^pro [4])
CCC[C@H](NC(=O)OCc1ccccc1)C(=O)N[C@H](/C=C/C(C)=O)C[C@@H]1CCNC1=O [SPR35, Benzyl ((S)-1-oxo-1-(((S,E)-5-oxo-1-((S)-2-oxopyrrolidin-3-yl)hex-3-en-2-yl)amino)pentan-2-yl)carbamate] | ~7 fold | – | – | – | –
CCCC[C@H](NC(=O)OCc1ccccc1)C(=O)N[C@H](/C=C/C(C)=O)C[C@@H]1CCNC1=O [SPR38, Benzyl ((S)-1-oxo-1-(((S,E)-5-oxo-1-((S)-2-oxopyrrolidin-3-yl)hex-3-en-2-yl)amino)hexan-2-yl)carbamate] | – | ~2 fold | no inhibition | no inhibitory activity | –
CC(=O)/C=C/[C@H](C[C@@H]1CCNC1=O)NC(=O)[C@H](CC1CC1)NC(=O)OCc1ccccc1 [SPR39, Benzyl ((S)-3-cyclopropyl-1-oxo-1-(((S,E)-5-oxo-1-((S)-2-oxopyrrolidin-3-yl)hex-3-en-2-yl)amino)propan-2-yl)carbamate] | – | ~6 fold | no inhibition | no inhibitory activity | did not show recovering enzymatic activities
CC(=O)/C=C/[C@H](C[C@@H]1CCNC1=O)NC(=O)[C@H](CC1CCCCC1)NC(=O)OCc1ccccc1 [SPR41, Benzyl ((S)-3-cyclohexyl-1-oxo-1-(((S,E)-5-oxo-1-((S)-2-oxopyrrolidin-3-yl)hex-3-en-2-yl)amino)propan-2-yl)carbamate] | – | – | no inhibition | no inhibitory activity | did not show recovering enzymatic activities

From publication PMC9751013 (European Journal of Medicinal Chemistry, 2022)
